Measurements from paper PMC7064328 (Environmental Health Perspectives, 2020).

System: embryo–placenta unit
Experiment: Embryo/placental growth metrics (mixed-effect models)
Type: in vivo, mouse (CD-1)
From the text: From each uterus, first, viable embryos and their matched placentas were collected in succession within a horn and immediately snap frozen ( n=2–5 per litter ), and subsequent embryos were collected for growth measurements ( n=2–11 per litter ). Additional placentas were collected and placed in 4% paraformaldehyde (PFA) for histological analysis (Block 2 only). Amniotic fluid was collected by needle aspiration from litters euthanized at E11.5 and snap frozen in liquid nitrogen. Embryo livers were collected from litters euthanized at E17.5 and snap frozen in liquid nitrogen. Dam livers were weighed, a portion of the left lateral lobe was placed in 4% PFA for histology, and another portion of the same lobe was snap frozen in liquid nitrogen. A third liver section was obtained from Block 2 dams and fixed in McDowell and Trump’s fixative for electron microscopy (EM). Gross lesions were collected when observed and placed in 4% PFA for histology. Dam kidneys were removed, a cross section was prepared from the right kidney, a longitudinal section was prepared from the left kidney, and both sections were fixed in 4% PFA for histological analysis.
Gross observations were recorded at necropsy. Embryo sex was determined by polymerase chain reaction (PCR) amplification of the Sry gene (forward, 5′-[…]-3′, and reverse, 3′-[…]-5′) using a snipped portion of tissue (TransnetYX®, Inc.). Embryos and their placentas were weighed separately as wet tissue. Images of embryos were obtained on a Leica Z16 APO imaging scope, and embryo length was measured as snout-to-rump distance using FIJI ([Schindelin et al. 2012]) and Zen 2 Blue (Zeiss).
Embryo and placental metrics were analyzed using mixed-effect models and included a priori fixed effects of treatment group and litter size and a random-effects term for the dam using the lme4 package. Embryo and placental metrics included embryo weight, embryo length, placental weight, and embryo:placenta weight ratios, a meaningful predictor of fetal birth outcomes in humans ([Hayward et al. 2016]). To account for potential introduction of random effects, the study block (Block 1 or Block 2) and experimenter handling of embryo/placental tissues (Experimenter A or Experimenter B) were included as additional random effects. Models were fit in a stepwise procedure for random effects, and final models included treatment group and litter size as fixed effects using the lmerTest package ([Kuznetsova et al. 2017]). All final models included dam as a random effect but were allowed to vary in the inclusion of experimenter and experimental block random effects based on likelihood ratio test results. Point estimates and 95% CIs were determined from the final model using the Wald method. The number of individual observations for each outcome (embryo weight, placenta weight, and embryo:placenta weight ratio) and the number of litters evaluated in the mixed-effect models are shown in Table S1.

SMILES: N.O=C(O)C(F)(OC(F)(F)C(F)(F)C(F)(F)F)C(F)(F)F (centres unmarked) [GenX, ammonium 2,3,3,3-tetrafluoro-2-(heptafluoropropoxy)propanoate]
- Embryo length, adjusted estimate (95% CI) (E11.5, 2 mg/kg/d): 17.6 (14.7, 20.5) mm
- Embryo weight, adjusted estimate (95% CI) (E11.5, 2 mg/kg/d): 49.9 (16.7, 83.1) mg
- Placental weight, adjusted estimate (95% CI) (E11.5, 2 mg/kg/d): 34.0 (0.1, 67.8) mg
- Embryo length, adjusted estimate (95% CI) (E11.5, 10 mg/kg/d): 17.4 (14.5, 20.3) mm
- Embryo weight, adjusted estimate (95% CI) (E11.5, 10 mg/kg/d): 45.2 (12.0, 78.3) mg
- Placental weight, adjusted estimate (95% CI) (E11.5, 10 mg/kg/d): 38.4 (4.5, 72.2) mg
- Embryo length, adjusted estimate (95% CI) (E17.5, 2 mg/kg/d): 32.7 (28.7, 36.6) mm
- Embryo weight, adjusted estimate (95% CI) (E17.5, 2 mg/kg/d): 1369.8 (1111.3, 1628.4) mg
- Placental weight, adjusted estimate (95% CI) (E17.5, 2 mg/kg/d): 137.1 (105.6, 168.6) mg
- Embryo length, adjusted estimate (95% CI) (E17.5, 10 mg/kg/d): 33.8 (29.8, 37.7) mm
- Embryo weight, adjusted estimate (95% CI) (E17.5, 10 mg/kg/d): 1337.0 (1077.5, 1596.4) mg
- Placental weight, adjusted estimate (95% CI) (E17.5, 10 mg/kg/d): 146.3 (114.7, 177.9) mg

SMILES: O=C(O)C(F)(F)C(F)(F)C(F)(F)C(F)(F)C(F)(F)C(F)(F)C(F)(F)F [PFOA, Perfluorooctanoic acid]
- Embryo weight decrease relative to controls (5 mg/kg/d): 9.4%
- Embryo length, adjusted estimate (95% CI) (E11.5, 1 mg/kg/d): 17.5 (14.5, 20.4) mm
- Embryo weight, adjusted estimate (95% CI) (E11.5, 1 mg/kg/d): 44.7 (11.1, 78.2) mg
- Embryo:Placental Weight Ratio, adjusted estimate (95% CI) (E11.5, 1 mg/kg/d): 1.19 (0.62, 1.76)
- Placental weight, adjusted estimate (95% CI) (E11.5, 1 mg/kg/d): 30.5 (-3.8, 64.7) mg
- Embryo length, adjusted estimate (95% CI) (E11.5, 5 mg/kg/d): 18.5 (15.6, 21.4) mm
- Embryo weight, adjusted estimate (95% CI) (E11.5, 5 mg/kg/d): 45.3 (11.8, 78.7) mg
- Embryo:Placental Weight Ratio, adjusted estimate (95% CI) (E11.5, 5 mg/kg/d): 1.21 (0.64, 1.77)
- Placental weight, adjusted estimate (95% CI) (E11.5, 5 mg/kg/d): 31.2 (-2.9, 65.3) mg
- Embryo length, adjusted estimate (95% CI) (E17.5, 1 mg/kg/d): 33.6 (29.6, 37.6) mm
- Embryo weight, adjusted estimate (95% CI) (E17.5, 1 mg/kg/d): 1350.7 (1091.9, 1609.4) mg
- Embryo:Placental Weight Ratio, adjusted estimate (95% CI) (E17.5, 1 mg/kg/d): 11.1 (8.0, 14.3)
- Placental weight, adjusted estimate (95% CI) (E17.5, 1 mg/kg/d): 129.7 (98.2, 161.2) mg
- Embryo BW lower than vehicle control embryos (mixed-effect model estimate) (E17.5, 5 mg/kg/d): 129 mg
- Embryo length, adjusted estimate (95% CI) (E17.5, 5 mg/kg/d): 31.2 (27.2 35.3) mm
- Embryo weight, adjusted estimate (95% CI) (E17.5, 5 mg/kg/d): 1249.5 (991.0, 1508.0) mg
- Embryo:Placental Weight Ratio, adjusted estimate (95% CI) (E17.5, 5 mg/kg/d): 8.5 (5.4, 11.6)
- Estimated increase in placental weight relative to controls (E17.5, 5 mg/kg/d): 21 mg
- Placental weight, adjusted estimate (95% CI) (E17.5, 5 mg/kg/d): 151.9 (120.5, 183.4) mg
- Shift in embryo weight (E17.5, 5 mg/kg/d): -0.129 g
